For 13 molecules, T/C results are on record in PubChem BioAssay AID192 (DTP/NCI, 2004).

The assay relates to BDF1 mice, B16 melanoma ip, median survival T/C. Nature of the assay: NCI In Vivo Anticancer Drug Screen. Data for tumor model B16 Melanoma (intraperitoneal) in B6D2F1 (BDF1) mice. The note with it: endpoint: median survival time, higher = longer survival. The method, then:
The antitumor activity of compounds was measured in mice bearing transplantable tumors. Survival or tumor size were measured and the results are expressed as the measurement made in the treated group (T) divided by the measurement made in the vehicle treated control group (C). The tumor model used in this assay is B16 Melanoma (intraperitoneal) in B6D2F1 (BDF1) mice

Setting [1] is: dose: 3.0 mg/kg/injection, schedule: Q01DX009 (ip), vehicle: saline with Tween-80.
The mark [2] stands for this setting: dose: 3.13 mg/kg/injection, schedule: Q01DX009 (ip), vehicle: saline with Tween-80.
Where [3] appears, read: dose: 6.25 mg/kg/injection, schedule: Q01DX009 (ip), vehicle: saline with Tween-80.
The mark [4] stands for this setting: dose: 12.0 mg/kg/injection, schedule: Q01DX009 (ip), vehicle: saline with Tween-80.
[5] abbreviates: dose: 12.5 mg/kg/injection, schedule: Q01DX009 (ip), vehicle: saline with Tween-80.
The mark [6] stands for this setting: dose: 100.0 mg/kg/injection, schedule: Q01DX009 (ip), vehicle: saline with Tween-80.
Setting [7] is: dose: 100.0 mg/kg/injection, schedule: Q01DX009 (ip), vehicle: Klucel (hydroxypropylcellulose) (HPC).
[8] abbreviates: dose: 200.0 mg/kg/injection, schedule: Q01DX009 (ip), vehicle: Klucel (hydroxypropylcellulose) (HPC).
[9] abbreviates: dose: 400.0 mg/kg/injection, schedule: Q01DX009 (ip), vehicle: Klucel (hydroxypropylcellulose) (HPC).
The mark [10] stands for this setting: dose: 50.0 mg/kg/injection, schedule: Q01DX009 (ip), vehicle: saline with Tween-80.
[11] abbreviates: dose: 200.0 mg/kg/injection, schedule: Q01DX009 (ip), vehicle: saline with Tween-80.
Where [12] appears, read: dose: 25.0 mg/kg/injection, schedule: Q01DX009 (ip), vehicle: saline with Tween-80.

“And” between values parts separate entries of the source, which are not always exact repeats. Identical values can stand only once. Inconclusive results and toxic doses are left out.

`COc1cc(NS(C)(=O)=O)ccc1Nc1c2ccc(Cl)cc2nc2c(OC)cccc12`: the T/C was 123 % of control (dose: 0.38 mg/kg/injection, schedule: Q01DX009 (ip), vehicle: saline with Tween-80); 110 % of control (dose: 0.75 mg/kg/injection, schedule: Q01DX009 (ip), vehicle: saline with Tween-80); 96 % of control (dose: 0.8 mg/kg/injection, schedule: Q01DX005 (iv), vehicle: water); 100 % of control (dose: 0.8 mg/kg/injection, schedule: Q04DX003 (iv), vehicle: water); 104 % of control (dose: 1.6 mg/kg/injection, schedule: Q01DX005 (iv), vehicle: water); 92 % of control (dose: 1.6 mg/kg/injection, schedule: Q04DX003 (iv), vehicle: water). Moreover, the T/C was 156 % of control (dose: 2.3 mg/kg/injection, schedule: Q01DX009 (ip), vehicle: other); 152 % of control under setting [1]; 178 % of control under setting [2]; 106 % of control (dose: 3.3 mg/kg/injection, schedule: Q01DX005 (iv), vehicle: water); 96 % of control (dose: 3.3 mg/kg/injection, schedule: Q04DX003 (iv), vehicle: water); 184 % of control (dose: 4.5 mg/kg/injection, schedule: Q01DX009 (ip), vehicle: other). Also, the T/C is 194 % of control under setting [3]; 109 % of control (dose: 6.5 mg/kg/injection, schedule: Q01DX005 (iv), vehicle: water); 105 % of control (dose: 6.5 mg/kg/injection, schedule: Q04DX003 (iv), vehicle: water); 178 % of control and 185 % of control (dose: 8.0 mg/kg/injection, schedule: Q01DX009 (ip), vehicle: saline with Tween-80); 241 % of control (dose: 9.0 mg/kg/injection, schedule: Q01DX009 (ip), vehicle: other); 152 % of control (dose: 9.0 mg/kg/injection, schedule: Q04DX003 (ip), vehicle: water). Further, the T/C is 190 % of control and 219 % of control under setting [4]; 236 % of control under setting [5]; 111 % of control (dose: 13.0 mg/kg/injection, schedule: Q04DX003 (iv), vehicle: water); 196 % of control (dose: 18.0 mg/kg/injection, schedule: Q01DX009 (ip), vehicle: saline with Tween-80); 172 % of control (dose: 18.0 mg/kg/injection, schedule: Q04DX003 (ip), vehicle: water); 200 % of control (dose: 36.0 mg/kg/injection, schedule: Q04DX003 (ip), vehicle: water).
As to `C/C=C1\CN(C)[C@H]2Cc3c([nH]c4ccccc34)[C@@H](c3cc4[nH]c5c(c4cc3OC)CCN3C[C@H]4C[C@H](CC)[C@H]3[C@@]5(C(=O)OC)C4)C[C@H]1C2C(=O)OC` (some centres not stated), the T/C is, setting by setting: (dose: 2.5 mg/kg/injection, schedule: Q01DX009 (ip), vehicle: suspension in saline) 98 % of control; under setting [1], 100 % of control; (dose: 5.0 mg/kg/injection, schedule: Q01DX009 (ip), vehicle: suspension in saline) 101 % of control; (dose: 6.0 mg/kg/injection, schedule: Q01DX009 (ip), vehicle: saline with Tween-80) 95 % of control; (dose: 10.0 mg/kg/injection, schedule: Q01DX009 (ip), vehicle: suspension in saline) 99 % of control; under setting [4], 106 % of control. Moreover, the T/C is, setting by setting: (dose: 25.0 mg/kg/injection, schedule: Q04DX003 (ip), vehicle: saline with Tween-80) 90 % of control; under setting [6], 87 % of control.
Turning to `Cc1cc(-c2ccc(N=Nc3ccc4c(S(=O)(=O)O)cc(S(=O)(=O)O)c(N)c4c3O)c(C)c2)ccc1N=Nc1ccc2c(S(=O)(=O)O)cc(S(=O)(=O)O)c(N)c2c1O`, the T/C (dose: 12.5 mg/kg/injection, schedule: Q01DX009 (ip), vehicle: saline) was 121 % of control.
For `Cc1ccc(NC(=O)c2ccccc2)cc1Cl`, the T/C is 101 % of control under setting [7], 103 % of control under setting [8] and 101 % of control under setting [9].
For the molecule `COC(=O)C1C(O)C(C)C(O)C(C)C=C(C)C2=C3C(=C(C)C(=O)c4c(O)c(c(C)c(OC(C)=O)c43)NC(=O)C(C)=C/C=C\C(C)C(O)C(C)C1O)OCO2` (configuration not stated), the T/C reads like this: (dose: 6.25 mg/kg/injection, schedule: Q01DX009 (ip), vehicle: Klucel (hydroxypropylcellulose) (HPC)) 97 % of control; (dose: 12.5 mg/kg/injection, schedule: Q01DX009 (ip), vehicle: Klucel (hydroxypropylcellulose) (HPC)) 94 % of control; (dose: 25.0 mg/kg/injection, schedule: Q01DX009 (ip), vehicle: Klucel (hydroxypropylcellulose) (HPC)) 88 % of control; (dose: 25.0 mg/kg/injection, schedule: Q01DX009 (ip), vehicle: carboxymethylcellulose (CMC)) 112 % of control; (dose: 50.0 mg/kg/injection, schedule: Q01DX009 (ip), vehicle: carboxymethylcellulose (CMC)) 112 % of control; under setting [7], 89 % of control.
In the case of `CN(C)S(=O)(=O)C(C)(C)c1ccccc1`, the T/C runs as follows: under setting [10], 90 % of control; under setting [6], 93 % of control; under setting [11], 95 % of control.
For `C1CC2CCC3CCCC4CCC(C1)C2C34` (configuration not stated), the T/C is 95 % of control under setting [2] and 89 % of control under setting [3].
On to `Nc1cc2c(c[n+](CCCCCCCC[n+]3cc4c5ccccc5c(N)cc4c4ccccc43)c3ccccc23)c2ccccc12`, for which the T/C by setting is: (dose: 0.78 mg/kg/injection, schedule: Q01DX009 (ip), vehicle: distilled water + Tween-80) 120 % of control; (dose: 1.25 mg/kg/injection, schedule: Q01DX009 (ip), vehicle: saline with Tween-80) 118 % of control; (dose: 1.56 mg/kg/injection, schedule: Q04DX003 (ip), vehicle: distilled water + Tween-80) 114 % of control; (dose: 2.5 mg/kg/injection, schedule: Q01DX009 (ip), vehicle: saline with Tween-80) 123 % of control; (dose: 2.59 mg/kg/injection, schedule: Q01DX009 (ip), vehicle: distilled water + Tween-80) 156 % of control; (dose: 3.12 mg/kg/injection, schedule: Q04DX003 (ip), vehicle: distilled water + Tween-80) 108 % of control. The T/C was 167 % of control (dose: 4.32 mg/kg/injection, schedule: Q01DX009 (ip), vehicle: distilled water + Tween-80); 162 % of control (dose: 6.25 mg/kg/injection, schedule: Q01DX009 (ip), vehicle: distilled water + Tween-80); 180 % of control (dose: 7.2 mg/kg/injection, schedule: Q01DX009 (ip), vehicle: distilled water + Tween-80); 166 % of control (dose: 10.0 mg/kg/injection, schedule: Q01DX009 (ip), vehicle: saline with Tween-80); 182 % of control (dose: 12.0 mg/kg/injection, schedule: Q01DX009 (ip), vehicle: distilled water + Tween-80); 88 % of control (dose: 12.5 mg/kg/injection, schedule: Q01DX009 (ip), vehicle: distilled water + Tween-80). Further, the T/C is 160 % of control (dose: 20.0 mg/kg/injection, schedule: Q01DX009 (ip), vehicle: saline with Tween-80) and 106 % of control (dose: 25.0 mg/kg/injection, schedule: Q04DX003 (ip), vehicle: distilled water + Tween-80).
Turning to `CC(=O)Nc1ccc(S(=O)(=O)CO)cc1`, the T/C is 97 % of control and 110 % of control under setting [5]; 100 % of control and 114 % of control under setting [12]; 95 % of control and 96 % of control under setting [10]; 92 % of control and 115 % of control under setting [6]; 90 % of control and 110 % of control under setting [11]; 89 % of control and 99 % of control (dose: 400.0 mg/kg/injection, schedule: Q01DX009 (ip), vehicle: saline with Tween-80).
Consider `CC(=O)CC(=O)Nc1cccc(Cl)c1C`, for which the T/C by setting is: (dose: 50.0 mg/kg/injection, schedule: Q01DX009 (ip), vehicle: Klucel (hydroxypropylcellulose) (HPC)) 103 % of control; under setting [7], 96 % of control; under setting [8], 106 % of control.
Regarding `CN(C)N=Nc1ccccc1C(=O)NC#N`, the T/C was 95 % of control (dose: 18.75 mg/kg/injection, schedule: Q01DX009 (ip), vehicle: Klucel (hydroxypropylcellulose) (HPC)) and 105 % of control (dose: 37.5 mg/kg/injection, schedule: Q01DX009 (ip), vehicle: Klucel (hydroxypropylcellulose) (HPC)).
As for `CC1(C)N=C(N)N=C(N)N1c1ccc(OCCNS(=O)(=O)c2cccc(S(=O)(=O)F)c2)c(Cl)c1`, the T/C runs as follows: under setting [5], 107 % of control; under setting [12], 113 % of control; under setting [10], 120 % of control.
For the molecule `CCCN(CCC)C(=O)c1ccncc1`, the T/C by setting is: under setting [7], 93 % of control; under setting [9], 95 % of control.
